Measurements taken from US7833991B2, “Amine compound and use thereof” (Kureha Corporation, priority 2002, dated 2010).
Read-outs that look alike come from different tables or passages of the source.

How the values were obtained:
[1] = tested on: HIV-1IIIB infected MT-4 cells; test: Antiviral activity in HIV-1IIIB infected MT-4 cells, MTT method (Test Examples 1 and 5); type: cell-based
Description: Immediately after infection, HIV-1IIIB infected MT-4 cells (3.0×10^4/well, MOI (Multiplicity of infection): 0.01) were added to a 96-well microtiter plate together with the test compounds having different concentrations. The cells were cultured in a carbon dioxide incubator at 37° C. for 5 days, and the number of living cells was measured in accordance with the MTT (tetrazolium) method (Pawels, et al., Journal of Virology Method, 20, 309-321 ([…])). The antiviral activity is represented by the concentration required for inhibition of cell disorder due to HIV by 50% (EC50: 50% Effective Concentration) (μM), and the results are shown in Table 2.
(§1) Compounds of the present invention having various substituted and unsubstituted heterocyclic rings for the substituent A2 of formula (1) were tested for antiviral (anti-HIV) activity as in Test Example 1 and for CXCR4 activity as in Test Example 2. The compounds, various substituents of the compounds, antiviral activity represented by the concentration required for inhibition of all disorder due to HIV injection by 50% (EC50: 50% Effective Concentration, μM), and CXCR4 activity calculated as a rate of inhibition of the binding between radioactive ligands and CXCR4 receptors by a test material (a binding-inhibition % at 0.1 μM) are shown in Table 5: […]

[2] = target: T1, CXCR4 (Homo sapiens, UniProt P61073); test: Inhibition of 125I-SDF-1α binding to receptors CXCR4 on MT-4 cells (Test Examples 2 and 5); conditions: binding-inhibition % at 0.1 μM
T1 construct: endogenous in cells; host or cells: MT-4 cells
T1 sequence (P61073 whole entry): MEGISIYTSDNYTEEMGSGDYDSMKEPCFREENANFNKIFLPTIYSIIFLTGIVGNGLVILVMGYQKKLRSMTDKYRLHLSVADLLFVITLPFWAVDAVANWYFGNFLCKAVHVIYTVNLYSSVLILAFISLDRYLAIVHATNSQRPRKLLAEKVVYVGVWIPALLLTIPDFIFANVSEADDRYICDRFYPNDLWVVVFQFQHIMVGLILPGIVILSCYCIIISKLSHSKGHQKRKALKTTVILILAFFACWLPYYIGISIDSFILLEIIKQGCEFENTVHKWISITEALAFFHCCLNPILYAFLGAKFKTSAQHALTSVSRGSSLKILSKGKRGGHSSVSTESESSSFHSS
Description: MT-4 cells (5×10^6/0.2 ml/well) were cultured on a 24-well microtiter plate. After the cells were incubated for 24 hours at 37° C. in a carbon dioxide gas incubator, a culture medium was replaced with a buffer solution (0.1% BSA-containing RPMI-1640). Together with a ligand ^125I-SDF-1α, (specific activity: 2,200 Ci/mmol; available from Daiichi Pure Chemicals Co., Ltd. (Tokyo)), test materials with various concentrations were subjected to a binding reaction for 2 hours under ice-cooling. […] Then, a rate of inhibition of the binding between radio-active ligands and receptors CXCR4 by a test material was calculated (a binding-inhibition % at 0.1 μM).
as §1

[3] = tested on: ICR mice; test: Acute toxicity in mice, single administration via tail vein (Test Example 3); type: in vivo; conditions: ICR mice (male), 2.5 mg/kg once
Description: The aforementioned compound was examined for acute toxicity. Specifically, 7-week-old ICR mice (male) were divided into several groups (4 or 5 mice in each group), and the mice were bred for 1 week for habituation. Subsequently, each of the compounds of Examples was dissolved in distilled water or physiological saline, and the solution was administered to the mice via tail vein (dose: 2.5 mg/kg) once. Then, dead mice were counted.

[4] = Human immunodeficiency virus 1, MT4, 120 h, concentration required for inhibition of cell disorder due to HIV by 50%, MT-4 cells, MOI 0.01, 5 days, MTT method, read-out: EC50
[5] = 125I-SDF-1α, MT-4 cells, 2 hours under ice-cooling, read-out: Inhibition rate (%)
[6] = Human immunodeficiency virus 1, MT4, as in Test Example 1, Table 5, read-out: HIV Activity EC50
[7] = as in Test Example 2, Table 5, read-out: CXCR4 Activity % at 0.1 μM

Structure (SMILES) | EC50 [1, 4] [nM] | inhibition at 0.1 µM [2, 5] [%] | Dead mice/test mice [3] | EC50 [1, 6] [nM] | inhibition at 0.1 µM [2, 7] [%]
CCCN(CCC)CCCCNC(=O)c1ccc(CN(Cc2ncc[nH]2)Cc2ncc[nH]2)cc1 [Compound No. 1, 4-{[bis(1H-imidazol-2-ylmethyl)-amino]-methyl}-N-(4-dipropylamino-butyl)-benzamide] | 4 | 100 | 0/5 | – | –
CC(C)CN(CCCCNC(=O)c1ccc(CN(Cc2ncc[nH]2)Cc2ncc[nH]2)cc1)CC(C)C [Compound No. 2, 4-{[bis(1H-imidazol-2-ylmethyl)-amino]-methyl}-N-(4-diisobutylamino-butyl)-benzamide] | 3 | 100 | 0/5 | – | –
NCCCCNC(=O)c1ccc(CN(Cc2ncc[nH]2)Cc2ncc[nH]2)cc1 [Compound No. 3, 4-{[bis(1H-imidazol-2-ylmethyl)-amino]-methyl}-N-(4-aminobutyl)-benzamide] | 3 | 100 | 0/5 | – | –
O=C(NCCCCNCc1ccccc1C(F)(F)F)c1ccc(CN(Cc2ncc[nH]2)Cc2ncc[nH]2)cc1 [Compound No. 11, 4-{[bis(1H-imidazol-2-ylmethyl)-amino]-methyl}-N-[4-(2-trifluoromethyl)-benzylamino-butyl]-benzamide] | 23 | 95 | 0/5 | – | –
O=C(NCCCCNCc1ccccc1OC(F)(F)F)c1ccc(CN(Cc2ncc[nH]2)Cc2ncc[nH]2)cc1 [Compound No. 12, 4-{[bis(1H-imidazol-2-ylmethyl)-amino]-methyl}-N-[4-(2-trifluoromethoxy)-benzylamino-butyl]-benzamide] | 49 | 95 | 0/5 | – | –
CCCN(CCC)Cc1ccc(NC(=O)c2ccc(CN(Cc3ncc[nH]3)Cc3ncc[nH]3)cc2)cc1 [Compound No. 19, 4-{[bis(1H-imidazol-2-ylmethyl)-amino]-methyl}-N-(4-dipropylaminomethylphenyl)-benzamide] | 2 | 100 | 0/5 | – | –
CCCN(CCC)CCCCNCc1ccc(CN(Cc2ncc[nH]2)Cc2ncc[nH]2)cc1 [Compound No. 25, N-(4-{[bis(1H-imidazol-2-ylmethyl)-amino]-methyl}-benzyl)-N′,N′-dipropylbutane-1,4-diamine] | 2 | 100 | 0/5 | – | –
CCCN(CCC)Cc1ccc(NC(=O)c2ccc(CN(Cc3ncc[nH]3)Cc3nccn3C)cc2)cc1 [Compound No. 49, N-(4-dipropylaminomethylphenyl)-4-{[(1H-imidazol-2-ylmethyl)-(1-methyl-1H-imidazol-2-ylmethyl)-amino]-methyl}-benzamide] | 2 | 100 | 0/5 | 2 | 100
CCCN(CCC)Cc1ccc(NC(=O)c2ccc(CN(Cc3ncc[nH]3)Cc3nc4ccccc4[nH]3)cc2)cc1 [Compound No. 61, N-(4-dipropylaminomethylphenyl)-4-{[(1H-imidazol-2-ylmethyl)-(1H-benzimidazol-2-ylmethyl)-amino]-methyl}-benzamide] | 2 | 100 | 0/5 | 2 | 100
CCCN(CCC)CCCCNCc1ccc(CN(Cc2ccc(C)cn2)Cc2ncc[nH]2)cc1 [Compound No. 75, N-(4-{[(1H-imidazol-2-ylmethyl)-(5-methylpyridine-2-ylmethyl)-amino]-methyl}-benzyl)-N′,N′-dipropylbutane-1,4-diamine] | 2 | 100 | 0/5 | – | –
CCCN(CCC)CCCCN(C)Cc1ccc(CN(Cc2ncc[nH]2)Cc2nccn2C)cc1 [Compound No. 98, N-(4-{[(1H-imidazol-2-ylmethyl)-(1-methyl-1H-imidazol-2-ylmethyl)-amino]-methyl}-benzyl)-N-methyl-N′,N′-dipropylbutane-1,4-diamine] | 3 | 100 | 0/5 | – | –
CN(CCCCNS(=O)(=O)c1ccc(CN(Cc2ncc[nH]2)Cc2nccn2C)cc1)C1CCCCC1 [Compound No. 109, N-[4-(cyclohexyl-methyl-amino)-butyl]-4-{[(1H-imidazol-2-ylmethyl)-(1-methyl-1H-imidazol-2-ylmethyl)-amino]-methyl}-benzenesulfonamide] | 2 | 100 | 0/5 | – | –
CCCN(CCC)CCCCN(C)Cc1ccc(CN(Cc2ncc[nH]2)Cc2nnc[nH]2)cc1 [Compound No. 116, N-(4-{[(imidazol-2-ylmethyl)-([1,2,4]-triazol-3-ylmethyl)-amino]-methyl}-benzyl)-N-methyl-N′,N′-dipropylbutane-1,4-diamine] | 2 | 100 | 0/5 | – | –
